What was measured:
[1] = tested on: p TrkB 515; experiment: Survival pathway protein expression by western blotting in SHSY5Y; format: cell-based, human
[2] = tested on: differentiated SHSY5Y cell cultures; experiment: Neuroprotective potential in differentiated SHSY5Y after 96 hrs, concentration series with and without corticosterone; format: cell-based, human
[3] = tested on: p TrkB 816; experiment: Survival pathway protein expression by western blotting in SHSY5Y; format: cell-based, human; settings: for Relative Protein Expression p TrkB 816: A1 + Cort.
[4] = tested on: mouse neuroblastoma cell line N2A; experiment: In vitro neuroprotection against corticosterone, differentiated N2A, 48 hrs; format: cell-based; settings: test compound 20 μM + Cort. 400 μM, read-out: % Cell viability ± SD, N2A
Protocol: (§1) Human neuroblastoma cells (SHSY5Y) and mouse neuroblastoma cells (N2A) were procured from American Type Culture Collection (ATCC). SHSY5Y cell cultures were maintained in DMEM F12 (Invitrogen) whereas N2A were cultured in DMEM (Invitrogen) with 10% Fetal Bovine Serum (Gibco) medium, subjected to differentiation to acquire neuronal morphology (employing differentiation media DMEM-F12, 3-5% FBS, (For differentiation, low concentration of FBS was used) and 50 μM retinoic acid). Differentiated cells were later seeded into 96 well plates, at a density of 1×10^4 before being incubated for 48 hrs with the synthesized library. The exhausted culture media was substituted with new culture media containing 0.5 mg/ml MTT dye. Eventually, the OD at 490 nm excitation was measured using a 96-well plate reader. The proportion of viable cells was determined as percentage of absorbance of untreated cultures relative to control.
(§2) In the next attempt, the neuroprotective properties of the generated library (20 μM, 48 hrs) were assessed employing differentiated human neuroblastoma cell line SHSY5Y and mouse neuroblastoma cell line N2A (Biomol Ther., 2022, 30(6), 570-575). The cells were assaulted with the neurotoxic corticosterone (Cort, 400 μM) for 24 hrs after the overnight preincubation of cells with test molecules as a selection criterion. […]

[5] = Cell viability assay in differentiated neuronal cells (MTT), SHSY5Y; format: cell-based; settings: human, read-out: % Cell viability ± SD, SHSY5Y
Source text: (§3) In the present disclosure outlined herein, a focused library of cannabidiol analogues were studied for possible neuro-protective potential employing cell line-based stress model systems which mimic the biological stress conditions in vitro (J Cell Biochem., 2018, 119(8), 6482-6491).
as §1

[6] = tested on: p-AKT 473; experiment: Survival pathway protein expression by western blotting in SHSY5Y; format: cell-based, human
Protocol: Here, A1 was tested to find its role in eliciting survival pathway proteins in differentiated human neuroblastoma cells in concentration and time dependent manner.
To investigate the effect of A1 on the survival proteins, […] of survival proteins, including p-Erk 44/42, p-AKT 473, Anti BDNF, and p TrkB 816 and p TrKB 515 by western blotting.

[7] = tested on: p-Erk 44/42; experiment: as above; format: cell-based, human; settings: for Relative Protein Expression p ERK 44/42: A1 + Cort.
[8] = Cell viability assay in differentiated neuronal cells (MTT), N2A; format: cell-based; settings: mouse, read-out: % Cell viability ± SD, N2A
Source text: as §3, §1

[9] = tested on: differentiated human neuroblastoma cell line SHSY5Y; experiment: In vitro neuroprotection against corticosterone, differentiated SHSY5Y, 48 hrs; format: cell-based
Protocol: as §1, §2

[10] = tested on: Anti BDNF; experiment: Survival pathway protein expression by western blotting in SHSY5Y; format: cell-based, human; settings: for Relative Protein Expression Anti BDNF: A1 + Cort.
[11] = tested on: depression mice model; experiment: In vivo corticosterone induced depression model: Forced Swim Test; design: species or system mouse (male C57)
Protocol: In vivo efficacy (ameliorates behavioral despair) of A1 in corticosterone induced model of stress (J. Neurochem., 2018 146, 722 734). […] A1 (20 mg/kg, oral) dissolved in normal saline was given for 3 consecutive weeks following corticosteroid stress. The sucrose preference test was employed, tail suspension test, and forced swim test to evaluate behavioral distress. We noticed that A1 can resurrect mice in stressful situations. […]
The forced swim test was employed to evaluate behavioral melancholy in depressed subjects. Each animal was individually conditioned in a glass cylinder 20 cm long, 10 cm deep and 14 cm radius of curvature. After being submerged in water for 5 mins, the mice's cumulative stationary episode, struggle in water, and eventual floating condition were evaluated. The duration for which the animals were motionless while attempting to hold both of their front limbs still was calculated by interpreting the visualizations portraying behavioral despair (Front Behav Neurosci., 2018, 12, 42).

[12] = A1 for multiple time spans, corticosterone

C=C(C)[C@@H]1CCC(C)=C[C@H]1c1c(O)cc(CCCCC)c(CN2CCOCC2)c1O [A1, 2′-(morpholin-1-ylmethyl)-cannabidiol]
Relative Protein Expression p TrkB 515 ([1]; A1 5 μM, 6 hrs): 0.23 | Relative Protein Expression p TrkB 515 ([1]; A1 + Cort., 0 hr): 1.019 | Relative Protein Expression p TrkB 515 ([1]; A1 + Cort., 0.5 hr): 2.277 | Relative Protein Expression p TrkB 515 ([1]; A1 + Cort., 1 hr): 6.57 | Relative Protein Expression p TrkB 515 ([1]; A1 + Cort., 2 hr): 8.707 | Relative Protein Expression p TrkB 515 ([1]; A1 + Cort., 4 hr): 8.145 | expression of p TrkB 515 (in words) [1, 12]: remarkably increased | cell viability compared to positive control DHF (in words) ([2]; A1 alone 1.25, 2.5, 5, 10, 20 and 40 μM): no significant variation in cell viability when compared to positive control DHF | viability at 1.25 µM ([2]; Homo sapiens, SH-SY5Y, 96 h, A1 1.25 μM, without Cort): 102% | viability at 2.5 µM ([2]; Homo sapiens, SH-SY5Y, 96 h, A1 2.5 μM, without Cort): 108% | viability at 5 µM ([2]; Homo sapiens, SH-SY5Y, 96 h, A1 5 μM + Cort 400 μM, 96 hrs): 103% | viability at 5 µM ([2]; Homo sapiens, SH-SY5Y, 96 h, A1 5 μM, without Cort): 108% | viability at 10 µM ([2]; Homo sapiens, SH-SY5Y, 96 h, A1 10 μM, without Cort): 117% | viability at 20 µM ([2]; Homo sapiens, SH-SY5Y, 96 h, A1 20 μM, without Cort): 115% | viability at 40 µM ([2]; Homo sapiens, SH-SY5Y, 96 h, A1 40 μM, without Cort): 115% | toxicity (in words) ([2]; concentrations as high as 40 μM, up to 96 hrs, with and without corticosterone): non-toxic even at concentrations as high as 40 μM | Relative Protein Expression p TrkB 816 ([3]; 0 hr): 1.012 | Relative Protein Expression p TrkB 816 ([3]; 0.5 hr): 1.309 | Relative Protein Expression p TrkB 816 ([3]; 1 hr): 10.54 | Relative Protein Expression p TrkB 816 ([3]; 2 hr): 16.76 | Relative Protein Expression p TrkB 816 ([3]; 4 hr): 23.54 | expression of p TrkB 816 (in words) [3, 12]: remarkably increased | viability at 20 µM [4]: 97.6 ± 1.97% | viability at 48 h, 20 µM [5]: 115.7 ± 0.71% | Relative Protein Expression PAKT 473 ([6]; A1 5 μM, 6 hrs): 0.67 | Relative Protein Expression PAKT 473 ([6]; A1 10 μM, 6 hrs): 1.60 | Relative Protein Expression PAKT 473 ([6]; A1 + Cort., 0 hr): 1.00 | Relative Protein Expression PAKT 473 ([6]; A1 + Cort., 0.5 hr): 11.68 | Relative Protein Expression PAKT 473 ([6]; A1 + Cort., 1 hr): 14.78 | Relative Protein Expression PAKT 473 ([6]; A1 + Cort., 2 hr): 17.15 | Relative Protein Expression PAKT 473 ([6]; A1 + Cort., 4 hr): 26.33 | Relative Protein Expression PAKT 473 ([6]; A1 + Cort., 6 hr): 31.80 | Relative Protein Expression PAKT 473 ([6]; A1/Cort., A1 5 μM, 6 hrs): 0.60 | Relative Protein Expression PAKT 473 ([6]; A1/Cort., A1 10 μM, 6 hrs): 1.35 | expression of p-AKT 473 (in words) [6, 12]: remarkably increased | Relative Protein Expression p ERK 44/42 ([7]; 0 hr): 1.00 | Relative Protein Expression p ERK 44/42 ([7]; 0.5 hr): 1.32 | Relative Protein Expression p ERK 44/42 ([7]; 1 hr): 3.29 | Relative Protein Expression p ERK 44/42 ([7]; 2 hr): 8.33 | Relative Protein Expression p ERK 44/42 ([7]; 4 hr): 9.69 | Relative Protein Expression p ERK 44/42 ([7]; 6 hr): 10.62 | expression of p-Erk 44/42 (in words) [7, 12]: remarkably increased | viability at 48 h, 20 µM [8]: 114 ± 2.28% | cell viability (in words) ([9]; 20 μM + Cort. 400 μM, compared with corticosterone treated group, SHSY5Y and N2A): the highest number of viable cells were observed in A1 treated line | viability at 20 µM ([9]; Homo sapiens, SH-SY5Y, test compound 20 μM + Cort. 400 μM, 48 hrs, read-out: % Cell viability ± SD, SHSY5Y): 97.9 ± 1.31% | Relative Protein Expression Anti BDNF ([10]; 0 hr): 1.029 | Relative Protein Expression Anti BDNF ([10]; 0.5 hr): 14.02 | Relative Protein Expression Anti BDNF ([10]; 1 hr): 28.11 | Relative Protein Expression Anti BDNF ([10]; 2 hr): 51.76 | Relative Protein Expression Anti BDNF ([10]; 4 hr): 41.62 | expression of Anti BDNF (in words) [10, 12]: remarkably increased | % Immobility (sec) ± SD (dead time) ([11]; with Cort.): 17.67 ± 5.12 s | % Latency to immobility (sec) ± SD ([11]; with Cort.): 34.06 ± 14.03 s | % Immobility (sec) ± SD (dead time) ([11]; without Cort.): 24.22 ± 5.30 s | % Latency to immobility (sec) ± SD ([11]; without Cort.): 44.59 ± 19.55 s

— US20260315499A1, “2'- {HETEROCYCLYL (ARYL/ALKYL) METHYL} - CANNABIDIOL COMPOUNDS AND PROCESS FOR PREPARATION THEREOF” (COUNCIL OF SCIENTIFIC & INDUSTRIAL RESEARCH, priority 2023, published 2026)
